This is an account of results in PubChem BioAssay AID2060486 (Molecular Pharmacology Branch, DTP, NCI, 2025).

“And” between values parts separate entries of the source, which are not always exact repeats. Equal values may be shown once. Bounds are passed on as bounds.

For the test, the system named is IGROV1 complex spheroids (HUVEC, MSC), viability % test/control. The test is described as follows: Anticancer human tumor IGROV1 cell line growth inhibition [GQUAD].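 On all read-outs here: spheroids exposed to compounds for 7 days before readout.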 To be noted: for viability, T/C: stronger effect = lower value. An excerpt:
DNA G-quadruplex Stabilizer Agents in Combinations in Complex Spheroids
A high-throughput screen of multi-cell type tumor spheroids was designed to identify active combinations of DNA G-quadruplex stabilizer agents and targeted small molecules. Complex spheroids include a stromal component modeled by human endothelial cells (HUVEC) and fibroblasts modeled by human mesenchymal stem cells (MSCs). The concentration ranges selected for each drug and investigational agent were based upon clinically achievable concentrations if the clinical Cmax of the agent was known.
Compounds. The drugs and investigational agents: pidnarulex (CX-5461; NSC782164), APTO-253 (NSC789042), BRACO-19 (NSC847499), peposertib (NSC802822), ceralasertib (NSC780249), elimusertib (NSC800525), camonsertib (NSC841442), AZD-1390 (NSC803789), olaparib (NSC753686), talazoparib (NSC767125), ART-558 (NSC835418), sotorasib (NSC818433), MRTX-1133 (NSC836407), SN-38 (NSC673596), topotecan (NSC609699), etoposide (NSC141540), doxorubicin (NSC123127), gemcitabine (NSC613327), 5-fluorouracil (NSC19893), paclitaxel (NSC125973), vemurafenib (NSC761431), panobinostat (NSC761190), R-306465 (JNJ-16241199; NSC773264), adavosertib (NSC754352), TP-3654 (NSC805149), carboplatin (NSC241240), KSQ-4279 (NSC840948), and staurosporine (NSC755774) were obtained from the National Cancer Institute (NCI) Developmental Therapeutics Program Chemical Repository (34). The FDA-approved anticancer drug set is available from the NCI Developmental Therapeutics Program. […] The stock solutions were prepared in dimethyl sulfoxide (DMSO, Sigma-Aldrich, St. Louis, MO, cat. D2650) at 800-fold the tested concentration and stored at -70 degrees C prior to their use. All drugs and investigational agents were tested over a range starting from a high concentration at or near the clinical Cmax and decreasing in half-log increments. If the clinical Cmax for an agent had not been determined, the highest concentration tested was 10 microM.
2.3 Cell Culture. All cells were maintained in an incubator at 37 degrees C and 5% CO2 with 95% humidity. The PDC lines were cultured according to standard operating procedures established by the NCI PDMR. All PDCs were thawed and cultured in Matrigel-coated flasks prepared with a working solution of 1X Ham's F-12 nutrient mix, without supplementation (Invitrogen, cat. 11765054), 100 U/mL penicillin-streptomycin (Invitrogen, cat. 15140122), and 2.5% Matrigel (Corning Inc., cat. 354248) for the first three passages. The 857933-349-R-J2-PDC line was cultured in 6C/Colon 1B media, which includes advanced DMEM/F-12 (Thermo Fisher Scientific, cat. 12634028), 10 mM HEPES (Thermo Fisher Scientific, cat. 15630080), 1X GlutaMAX supplement (Thermo Fisher Scientific, cat. 35050061), 0.1 mg/mL primocin (InvivoGen, cat. ant-pm-2), 10% defined fetal bovine serum, heat inactivated (HyClone Laboratories Inc., cat. SH30070.03HI), 50% L-WRN conditioned media (ATCC, cat. CRL-3276), 1.25 mM N-Acetyl-L-cysteine (Sigma-Aldrich, cat. A9165), 10 mM nicotinamide (Sigma-Aldrich, cat. N0636), 1X B-27 supplement (Thermo Fisher Scientific, cat. 17504044), 1X N-2 supplement (Thermo Fisher Scientific, cat. 17502048), 10 microM Y-27632 dihydrochloride (Tocris Bioscience, cat. 1254), and 50 ng/mL human EGF recombinant protein (Thermo Fisher Scientific, cat. PHG0311). The 485176-168-R4-J1-PDC line was cultured in Panc media, which includes all 6C/Colon 1B media components plus 100 ng/mL human FGF-10 (Thermo Fisher Scientific, cat. 100-26), 500 nM SB-431542 (Selleckchem, cat. S1067), and gastrin (Tocris, cat. 3006).
[…]

Consider `Cc1[nH]c2ccc(F)cc2c1-c1nc2c3cccnc3c3ncccc3c2[nH]1`, for which the viability, T/C reads like this: (compound 0.1 µM) 101% [middle of 12 runs]; (compound 1 µM) 4.97% [middle of 12 runs]; (compound 3.16 µM) 4.72% [middle of 12 runs]; (compound 10 µM) 4.29% [middle of 12 runs]. For the same compound, the IC50 runs as follows: (compound alone, run of 03/18/2024) 561 nM [middle of 8 runs]; (compound alone, run of 03/26/2024) 531 nM [middle of 4 runs].

Take `Nc1ccn(C2OC(CO)C(O)C2(F)F)c(=O)n1` (configuration not stated) + Cc1[nH]c2ccc(F)cc2c1-c1nc2c3cccnc3c3ncccc3c2[nH]1: the IC50 (curve of first compound, second compound 0.0316 µM) was under 31.6 nM; the IC50 (curve of first compound, second compound 0.1 µM) was under 31.6 nM; the IC50 (curve of first compound, second compound 0.316 µM) was under 31.6 nM; the IC50 (curve of first compound, second compound 1 µM) is under 31.6 nM; the IC50 (curve of first compound, second compound 3.16 µM) is under 31.6 nM; the IC50 (curve of first compound, second compound 10 µM) was under 31.6 nM. Further, the viability, T/C (second compound 0.0316 µM, first compound 0.0316 µM) is 10.5%; the viability, T/C (second compound 0.0316 µM, first compound 0.1 µM) was 6.29%; the viability, T/C (second compound 0.0316 µM, first compound 0.316 µM) is 5.85%; the viability, T/C (second compound 0.0316 µM, first compound 1 µM) is 6.52%; the viability, T/C (second compound 0.0316 µM, first compound 3.16 µM) was 6.69%; the viability, T/C (second compound 0.0316 µM, first compound 10 µM) is 5.57%. The viability, T/C (second compound 0.1 µM, first compound 0.0316 µM) was 18%; the viability, T/C (second compound 0.1 µM, first compound 0.1 µM) is 6.64%; the viability, T/C (second compound 0.1 µM, first compound 0.316 µM) is 5.87%; the viability, T/C (second compound 0.1 µM, first compound 1 µM) is 5.31%; the viability, T/C (second compound 0.1 µM, first compound 3.16 µM) was 5.55%; the viability, T/C (second compound 0.1 µM, first compound 10 µM) is 6.59%. Moreover, the viability, T/C is 11.5% (second compound 0.316 µM, first compound 0.0316 µM); 6.38% (second compound 0.316 µM, first compound 0.1 µM); 6.31% (second compound 0.316 µM, first compound 0.316 µM); 6.72% (second compound 0.316 µM, first compound 1 µM); 6.12% (second compound 0.316 µM, first compound 3.16 µM); 5.22% (second compound 0.316 µM, first compound 10 µM). Further, the viability, T/C by setting is: (second compound 1 µM, first compound 0.0316 µM) 4.26%; (second compound 1 µM, first compound 0.1 µM) 5%; (second compound 1 µM, first compound 0.316 µM) 3.88%; (second compound 1 µM, first compound 1 µM) 3.77%; (second compound 1 µM, first compound 3.16 µM) 3.84%; (second compound 1 µM, first compound 10 µM) 3.25%. Moreover, the viability, T/C by setting is: (second compound 3.16 µM, first compound 0.0316 µM) 5.06%; (second compound 3.16 µM, first compound 0.1 µM) 4.43%; (second compound 3.16 µM, first compound 0.316 µM) 3.62%; (second compound 3.16 µM, first compound 1 µM) 4.5%; (second compound 3.16 µM, first compound 3.16 µM) 4.02%; (second compound 3.16 µM, first compound 10 µM) 2.81%. Besides, the viability, T/C by setting is: (second compound 10 µM, first compound 0.0316 µM) 3.58%; (second compound 10 µM, first compound 0.1 µM) 4.69%; (second compound 10 µM, first compound 0.316 µM) 4.1%; (second compound 10 µM, first compound 1 µM) 4.26%; (second compound 10 µM, first compound 3.16 µM) 3.44%; (second compound 10 µM, first compound 10 µM) 2.86%.

With `O=c1[nH]cc(F)c(=O)[nH]1`, the viability, T/C is 109% and 96.5% and 111% (compound 0.0316 µM); 86.7% and 99.3% and 94.8% (compound 0.1 µM); 99.8% and 104% and 106% (compound 0.316 µM); 95.4% and 96.4% and 96.5% (compound 1 µM); 69.2% and 93.7% and 84.7% (compound 3.16 µM); 30.4% and 23.8% and 19.9% (compound 10 µM). Moreover, the IC50 (curve of compound) is 5600 nM and 6490 nM and 5820 nM.

Regarding `CC[C@@]1(O)C(=O)OCc2c1cc1n(c2=O)Cc2cc3c(CN(C)C)c(O)ccc3nc2-1`, the viability, T/C runs as follows: (compound 0.000999 µM) 107% and 86.8% and 96.1%; (compound 0.00316 µM) 92.1% and 95.8% and 83%; (compound 0.00999 µM) 83.8% and 92.3% and 80.7%; (compound 0.0316 µM) 42.3% and 42.6% and 30.4%; (compound 0.0999 µM) 10.7% and 11.3% and 11%; (compound 0.316 µM) 11.4% and 10.2% and 9.99%. Moreover, the IC50 (curve of compound) is 24.8 nM and 26.6 nM and 20.1 nM.

A word on the viability, T/C: it is the ratio of treated to control. The IC50 is the concentration that gives 50% inhibition.
